Measurements taken from ChEMBL document CHEMBL1201862, “PubChem BioAssay data set” (2004).
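In this assay, cells in 96-well plates receive the compound at five concentrations for 48 hours. Endpoints are linearly interpolated between the surrounding concentrations. Abbreviation: GI50, concentration required for 50% inhibition of growth.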 Activity calls are given as the source filed them. Cut-off read from the data, not from the text of the source: active = GI50 up to about 1.1 µM and inactive = higher.

Key:
Assay in all cases: DTP human tumour cell line panel, 48 h
RXF 393 = tested on: RXF 393
M14 = tested on: M14
HCT-15 = tested on: HCT-15
SK-MEL-2 = tested on: SK-MEL-2
A498 = tested on: A498
786-0 = tested on: 786-0
NCI/ADR-RES = tested on: NCI/ADR-RES
Hs-578T = tested on: Hs-578T
SF-268 = tested on: SF-268
HT-29 = tested on: HT-29
LOX IMVI = tested on: LOX IMVI
Malme-3M = tested on: Malme-3M
SK-OV-3 = tested on: SK-OV-3
SF-295 = tested on: SF-295
CAKI-1 = tested on: CAKI-1
EKVX = tested on: EKVX
MDA-N = tested on: MDA-N
SK-MEL-5 = tested on: SK-MEL-5
OVCAR-8 = tested on: OVCAR-8
KM-20L2 = tested on: KM-20L2

Row | SMILES | GI50 (RXF 393) | GI50 (M14) | GI50 (HCT-15) | GI50 (SK-MEL-2) | GI50 (A498) | GI50 (786-0) | GI50 (NCI/ADR-RES) | GI50 (Hs-578T) | GI50 (SF-268) | GI50 (HT-29) | GI50 (LOX IMVI) | GI50 (Malme-3M) | GI50 (SK-OV-3) | GI50 (SF-295) | GI50 (CAKI-1) | GI50 (EKVX) | GI50 (MDA-N) | GI50 (SK-MEL-5) | GI50 (OVCAR-8) | GI50 (KM-20L2)
1 | CCc1n[nH]c(=O)n1/N=C/c1ccccc1Cl | 0.474 µM (active) | > 100 µM (inactive) | > 100 µM | > 100 µM (inactive) | > 100 µM (inactive) | > 100 µM (inactive) | > 100 µM (inactive) | 2.69 µM (inactive) | 50 µM (inactive) | > 100 µM (inactive) | > 100 µM (inactive) | > 100 µM (inactive) | > 100 µM (inactive) | > 100 µM (inactive) | > 100 µM (inactive) | 1.42 µM (inactive) | > 100 µM (inactive) | > 100 µM (inactive) | > 100 µM (inactive) | –
2 | CC(=O)O[C@H]1C(=O)N(c2cc3c4ccccc4ccc3c3ccccc23)[C@@H]1c1ccccc1 | 2.72 µM (inactive) | 4.38 µM (inactive) | 3.85 µM | 2.65 µM (inactive) | 21.8 µM (inactive) | 3.79 µM (inactive) | 4.38 µM (inactive) | 5.16 µM (inactive) | 7.24 µM (inactive) | 2.64 µM (inactive) | 4.34 µM (inactive) | 5.38 µM (inactive) | 4.74 µM (inactive) | 3.64 µM (inactive) | 4.62 µM (inactive) | 14.6 µM (inactive) | 3.86 µM (inactive) | 3.24 µM (inactive) | 3.97 µM (inactive) | –
3 | Cc1cc(O)ccc1C1(c2ccc(F)cc2)OC(=O)c2ccccc21 (stereo not given) | 1.24 µM (inactive) | 13.6 µM (inactive) | 3.18 µM | 3.93 µM (inactive) | 13.6 µM (inactive) | 8.47 µM (inactive) | 0.415 µM (active) | 0.263 µM (active) | 7.73 µM (inactive) | 5.09 µM (inactive) | 2.31 µM (inactive) | 12.7 µM (inactive) | 3.65 µM (inactive) | 3.48 µM (inactive) | 3.78 µM (inactive) | 3.18 µM (inactive) | 11.6 µM (inactive) | 11.3 µM (inactive) | 0.413 µM (active) | –
4 | COc1cc([N+](=O)[O-])cc2c1NC(=O)C2(C)SC (stereo not given) | 86.7 µM (inactive) | 52.8 µM (inactive) | > 100 µM | 60.7 µM (inactive) | > 100 µM (inactive) | > 100 µM (inactive) | 94.6 µM (inactive) | > 100 µM (inactive) | > 100 µM (inactive) | > 100 µM (inactive) | 88.1 µM (inactive) | > 100 µM (inactive) | 25.4 µM (inactive) | 63.7 µM (inactive) | > 100 µM (inactive) | > 100 µM (inactive) | 51.8 µM (inactive) | > 100 µM (inactive) | > 100 µM (inactive) | –
5 | COC(=O)[C@@H]1[C@@H](c2cccc(Cl)c2)[C@H](C(=O)OC)C2(C[C@@]1(C)O)NCCS2 (stereo not given in full) | 49.4 µM (inactive) | 39.1 µM (inactive) | 82.6 µM | 16.6 µM (inactive) | > 100 µM (inactive) | 74.6 µM (inactive) | 91.6 µM (inactive) | > 100 µM (inactive) | > 100 µM (inactive) | 44.2 µM (inactive) | 38.2 µM (inactive) | > 100 µM (inactive) | > 100 µM (inactive) | > 100 µM (inactive) | > 100 µM (inactive) | > 100 µM (inactive) | 86.1 µM (inactive) | 44.9 µM (inactive) | 86.5 µM (inactive) | –
6 | Cc1cccc2c(=O)c3c(O)cc(O)cc3n(C)c12 | > 100 µM (inactive) | > 100 µM (inactive) | > 100 µM | > 100 µM (inactive) | 7.29 µM (inactive) | > 100 µM (inactive) | > 100 µM (inactive) | 6.37 µM (inactive) | > 100 µM (inactive) | > 100 µM (inactive) | > 100 µM (inactive) | > 100 µM (inactive) | > 100 µM (inactive) | > 100 µM (inactive) | > 100 µM (inactive) | 7.41 µM (inactive) | > 100 µM (inactive) | > 100 µM (inactive) | > 100 µM (inactive) | –
7 | COc1cccc(C2c3cc4c(cc3OC(C)(N3CCCC3)C2C)OCO4)c1O (stereo not given) | 2.89 µM (inactive) | 3.08 µM (inactive) | 3.6 µM | 4.98 µM (inactive) | 6.4 µM (inactive) | 4.71 µM (inactive) | 2.72 µM (inactive) | 2 µM (inactive) | 8.22 µM (inactive) | 2.36 µM (inactive) | 4.82 µM (inactive) | 3.89 µM (inactive) | 3.44 µM (inactive) | 4.9 µM (inactive) | 5.83 µM (inactive) | 7.91 µM (inactive) | 1.93 µM (inactive) | 2.57 µM (inactive) | 7.87 µM (inactive) | –
8 | CCN(CC)CCn1c2cc3c(cc2c(=O)c2cccnc21)OCO3 | 5.86 µM (inactive) | 4.95 µM (inactive) | 3.72 µM | 9.91 µM (inactive) | 3.91 µM (inactive) | 4.45 µM (inactive) | 4.93 µM (inactive) | > 10 µM (inactive) | 6.71 µM (inactive) | 4.04 µM (inactive) | 3.71 µM (inactive) | 4.84 µM (inactive) | 9.84 µM (inactive) | 4.71 µM (inactive) | 9.14 µM (inactive) | 5.14 µM (inactive) | 8.93 µM (inactive) | 2.77 µM (inactive) | 4.62 µM (inactive) | –
9 | CC[C@H](C)[C@H]1NC(=O)[C@@H](NC(=O)[C@@H](CC(C)C)N(C)C(=O)C2CCCN2C(=O)[C@H](C)O)[C@@H](C)OC(=O)[C@@H]2Cc3ccccc3CN2C(=O)[C@@H]2CCCN2C(=O)[C@H](CC(C)C)NC(=O)[C@@H](C)C(=O)[C@H](C(C)C)OC(=O)C[C@@H]1O (stereo not given in full) | 0.802 µM (active) | 1.17 µM (inactive) | > 47.2 µM | 0.205 µM (active) | 0.871 µM (active) | 0.368 µM (active) | > 100 µM (inactive) | 0.314 µM (active) | 0.327 µM (active) | 0.258 µM (active) | 0.361 µM (active) | 0.34 µM (active) | 0.547 µM (active) | 1.06 µM (active) | 4.92 µM (inactive) | 2.52 µM (inactive) | 0.388 µM (active) | 0.164 µM (active) | 1.1 µM (active) | –
10 | CCOC(=O)/C(=C/c1ccc(C(=O)OC)cc1)N(CC)CC | – | 40.2 µM (inactive) | 33.3 µM | 44.9 µM (inactive) | – | 41 µM (inactive) | – | – | 40.1 µM (inactive) | – | 63.2 µM (inactive) | 90.4 µM (inactive) | 50.5 µM (inactive) | > 10 µM (inactive) | 41.6 µM (inactive) | 35.4 µM (inactive) | – | 37.7 µM (inactive) | 63 µM (inactive) | 31.2 µM (inactive)
11 | CN1c2ccc(O)c(O)c2-c2cc(O)cc3c2C1CCC3 (stereo not given) | 7.23 µM (inactive) | 16.2 µM (inactive) | 20.6 µM | 24 µM (inactive) | > 76.2 µM (inactive) | 15.2 µM (inactive) | 18 µM (inactive) | 35.2 µM (inactive) | 14.2 µM (inactive) | 19.1 µM (inactive) | 11.2 µM (inactive) | 15.9 µM (inactive) | 51.9 µM (inactive) | 57.7 µM (inactive) | 20.3 µM (inactive) | 20.7 µM (inactive) | 16.9 µM (inactive) | 15.7 µM (inactive) | 19.1 µM (inactive) | –
12 | CC1(C)CCCC2(C)C3=C(CCC12)C(=O)OC3 (stereo not given) | 62.2 µM (inactive) | > 100 µM (inactive) | 87.9 µM | > 100 µM (inactive) | > 100 µM (inactive) | > 100 µM (inactive) | 86.3 µM (inactive) | 97.9 µM (inactive) | > 100 µM (inactive) | 66.7 µM (inactive) | > 100 µM (inactive) | > 100 µM (inactive) | > 100 µM (inactive) | > 100 µM (inactive) | 53.6 µM (inactive) | > 100 µM (inactive) | > 100 µM (inactive) | 42.7 µM (inactive) | > 100 µM (inactive) | –
13 | COc1cnnc2c(C)c(-c3ccccc3)nn12 | 0.436 µM (active) | > 68.4 µM (inactive) | > 100 µM | 40.4 µM (inactive) | 29.2 µM (inactive) | > 84.9 µM (inactive) | > 100 µM (inactive) | > 66.1 µM (inactive) | 82.4 µM (inactive) | > 100 µM (inactive) | > 100 µM (inactive) | 39.6 µM (inactive) | 47.6 µM (inactive) | > 78.7 µM (inactive) | 57 µM (inactive) | > 100 µM (inactive) | 60.5 µM (inactive) | > 75.5 µM (inactive) | > 100 µM (inactive) | –
14 | CC1(C)CN(CC(=O)O)CC(Cc2ccc(OCC(=O)O)cc2)N(CC(=O)O)CC(C)(C)SS1 (stereo not given) | > 100 µM (inactive) | > 100 µM (inactive) | > 100 µM | > 100 µM (inactive) | > 100 µM (inactive) | > 100 µM (inactive) | > 100 µM (inactive) | > 100 µM (inactive) | > 100 µM (inactive) | > 100 µM (inactive) | > 100 µM (inactive) | > 100 µM (inactive) | > 100 µM (inactive) | > 100 µM (inactive) | > 100 µM (inactive) | > 100 µM (inactive) | > 100 µM (inactive) | > 100 µM (inactive) | > 100 µM (inactive) | –
15 | COc1ccc2cc(CNCCCN3CCN(CCCNCc4ccc5cc(OC)ccc5c4)CC3)ccc2c1 | 1.46 µM (inactive) | 1.6 µM (inactive) | 1.57 µM | 1.93 µM (inactive) | 1.66 µM (inactive) | 1.55 µM (inactive) | 2.21 µM (inactive) | 1.52 µM (inactive) | 1.77 µM (inactive) | 0.49 µM (active) | 0.55 µM (active) | 1.72 µM (inactive) | 1.42 µM (inactive) | 1.68 µM (inactive) | 1.78 µM (inactive) | 1.73 µM (inactive) | 1.44 µM (inactive) | 1.69 µM (inactive) | 1.73 µM (inactive) | –
